According to patent publication US20220000807A1, “METHODS AND APPARATUS FOR TREATING A WOUND” (Chang Gung Memorial Hospital, Linkou, priority 2018, published 2022):

Tests used:
[1] = test system: severe, relapsing paronychia and pyogenic granuloma-like lesion on left thumb (induced by afatinib); assay: Topical treatment of a patient with afatinib-induced paronychia and pyogenic granuloma-like lesion; format: in vivo, human; settings: one patient; for improvement of paronychia and pyogenic granuloma-like lesion with previous topical treatment: previous treatment with all three agents, FIG. 1A
Source text: They were subsequently treated with topical 0.25% betaxolol drops once daily (Alcon Laboratories, USA) for 4 weeks under occlusion.

[2] = test system: deep fissure over palms or soles induced by EGFR inhibitors; settings: 10 patients; topical 0.25% drops once a day; FIG. 2A, 2B
Procedure: 10 patients with deep fissure over palms or soles induced by EGFR inhibitors were treated with topical 0.25% betaxolol drops (Alcon Laboratories, USA) once a day.

back incisions of rats = assay: In vivo rat back incision wound healing study; settings: for microscopic changes of the 1 cm×1 cm back wound: Day 10, 10 days of drops twice a day (0.25% betaxolol, 0.5% Timoptol), FIG. 4A-4C
Procedure: An in vivo study was performed to examine the effectiveness of a non-selective β blocker and a β1-blocker using rats. The rats were divided into 3 groups: (a) control (n=2); (b) non-selective […] blocker (n=1); and (c) β1-blocker (n=1). On Day 0 of the experiment, 3 back incisions were made on each rat. The size of the back incisions are 1.5 cm×1.5 cm, 1 cm×1 cm and 0.5 cm×0.5 cm for the top, middle and bottom incisions as shown on FIG. 4A.
The rats in the control group received no treatment, the rat in the non-selective β blocker group received 0.5% Timoptol drop (MSD, USA) twice a day (30 μl for the top incision, 13 μl for the middle incision and 3.3 μl for the bottom incision) and the rat in the β1-blocker group received 0.25% Betoptic drop (Alcon Laboratories, USA) twice a day (30 μl for the top incision, 13 μl for the middle incision and 3.3 μl for the bottom incision).

Compound | improvement of paronychia and pyogenic granuloma-like lesion with previous topical treatment [1] | microscopic changes of the 1 cm×1 cm back wound (back incisions of rats) | also measured
O=[N+]([O-])[O-].[Ag+] [silver nitrate] | without any improvement | – | –
CC(C)NCC(O)COc1ccc(CCOCC2CC2)cc1 (centres unmarked) [betaxolol] | – | almost completely healed with re-growth of fibroblasts, complete re-epithelization of epidermis, and no evidence of debri | resolution of paronychia and pyogenic granuloma-like lesion ([1]; topical 0.25% drops once daily for 4 weeks under occlusion, FIG. 1B): complete resolution of paronychia and pyogenic granuloma-like lesion; deep fissure wound healing [2]: healed within one week of treatment in all of the 10 patients; appearance of back incisions (erythema, size) (back incisions of rats; 0.25% drop twice a day, after 7 days of treatment, compared to 0.5% Timoptol drops and no treatment, FIG. 3C-3E): less erythematous and smaller in size
CCCCC(=O)O[C@]1(C(=O)CO)[C@@H](C)C[C@H]2[C@@H]3CCC4=CC(=O)C=C[C@]4(C)[C@@]3(F)[C@@H](O)C[C@@]21C [betamethasone valerate] | without any improvement | – | –
CC(C)(C)NC[C@H](O)COc1nsnc1N1CCOCC1.O=C(O)/C=C\C(=O)O [Timoptol] | – | incompletely healing, characterized with incomplete re-epithelization of the epidermis, less fibroblast activity and evidence of debri | –
gentamicin sulfate | without any improvement | – | –
